From ChEMBL document CHEMBL1201862, “PubChem BioAssay data set” (2004)
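Growth conditions: 96-well plates. Treatment: test compound, 48 hours, 5 concentrations. Analysis: linear interpolation between bracketing concentrations; unreached endpoints set to highest concentration. The concentration for 50% growth inhibition is given as GI50.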 Activity calls are given as the source filed them. No stated cut-off is given here; in the data, active = GI50 up to about 1.1 µM and inactive = higher.

Experiments:
Experiment in all cases: NCI anticancer screen, dose series, 48 h
A498 = tested on: A498
A549 = tested on: A549
CCRF-CEM = tested on: CCRF-CEM
HCT-15 = tested on: HCT-15
IGROV-1 = tested on: IGROV-1
KM12 = tested on: KM12
LOX IMVI = tested on: LOX IMVI
Malme-3M = tested on: Malme-3M
NCI-H226 = tested on: NCI-H226
NCI-H23 = tested on: NCI-H23
RXF 393 = tested on: RXF 393
SF-268 = tested on: SF-268
SF-539 = tested on: SF-539
SNB-75 = tested on: SNB-75
UACC-257 = tested on: UACC-257
UACC-62 = tested on: UACC-62
DU-145 = tested on: DU-145
NCI/ADR-RES = tested on: NCI/ADR-RES
T47D = tested on: T47D

SMILES	GI50 (A498)	GI50 (A549)	GI50 (CCRF-CEM)	GI50 (HCT-15) [µM]	GI50 (IGROV-1)	GI50 (KM12)	GI50 (LOX IMVI)	GI50 (Malme-3M)	GI50 (NCI-H226)	GI50 (NCI-H23)	GI50 (RXF 393)	GI50 (SF-268)	GI50 (SF-539)	GI50 (SNB-75)	GI50 (UACC-257)	GI50 (UACC-62)	GI50 (DU-145)	GI50 (NCI/ADR-RES)	GI50 (T47D)
O=C(CC(O)(c1ccccc1)c1ccc(Cl)cc1)NC(=O)c1ccccc1O (stereo unspecified)	1.95 µM (inactive)	8.07 µM (inactive)	4.41 µM (inactive)	4.12	5.75 µM (inactive)	3.86 µM (inactive)	9.2 µM (inactive)	14.9 µM (inactive)	7.87 µM (inactive)	6.5 µM (inactive)	11.7 µM (inactive)	7.28 µM (inactive)	11.6 µM (inactive)	6.44 µM (inactive)	10.3 µM (inactive)	6.04 µM (inactive)			
O=C(Cc1nc2sc3c(c2c(=O)[nH]1)CCCC3)Nc1ccccc1	> 100 µM (inactive)	> 100 µM (inactive)	> 100 µM (inactive)	> 100	> 100 µM (inactive)	> 100 µM (inactive)	> 100 µM (inactive)	> 100 µM (inactive)	> 100 µM (inactive)	> 100 µM (inactive)	15.5 µM (inactive)	> 100 µM (inactive)	73.6 µM (inactive)	25.1 µM (inactive)		> 100 µM (inactive)			
Cn1nc(-c2cccc(-c3nn(C)/c(=N\CCO)s3)n2)s/c1=N/CCO	> 100 µM (inactive)	> 100 µM (inactive)	> 100 µM (inactive)	> 100	> 100 µM (inactive)	> 100 µM (inactive)	> 100 µM (inactive)		> 100 µM (inactive)	> 100 µM (inactive)	> 100 µM (inactive)	> 100 µM (inactive)	> 100 µM (inactive)	> 100 µM (inactive)	> 100 µM (inactive)	> 100 µM (inactive)			
COc1cccc(/N=C/c2cc3cc(Br)ccc3nc2Cl)c1		> 50 µM (inactive)	4.78 µM (inactive)	35.3	12.6 µM (inactive)	9.75 µM (inactive)	18.9 µM (inactive)	> 50 µM (inactive)	5.58 µM (inactive)	22.1 µM (inactive)	13.7 µM (inactive)	20.1 µM (inactive)	13.1 µM (inactive)	17.1 µM (inactive)	44.5 µM (inactive)		48.8 µM (inactive)	17.2 µM (inactive)	10.5 µM (inactive)
CC12C3CC4C5CC(C(C53)[C@@H]1NCc1ccccc1)C42 (stereo partly specified)	> 100 µM (inactive)	> 100 µM (inactive)	> 100 µM (inactive)	78.9	> 100 µM (inactive)	> 100 µM (inactive)	> 100 µM (inactive)	> 100 µM (inactive)	> 100 µM (inactive)	> 100 µM (inactive)	84.9 µM (inactive)	> 100 µM (inactive)	> 100 µM (inactive)	> 100 µM (inactive)	> 100 µM (inactive)	> 100 µM (inactive)			
CCOP(=O)(OCC)OC1CC(n2cc(C)c(=O)n(C)c2=O)OC1CO[Si](C)(C)C(C)(C)C (stereo unspecified)		55.1 µM (inactive)	61.2 µM (inactive)	> 100	> 100 µM (inactive)	75.2 µM (inactive)	> 100 µM (inactive)	> 100 µM (inactive)	> 100 µM (inactive)	> 100 µM (inactive)	21.6 µM (inactive)	> 100 µM (inactive)	> 100 µM (inactive)	75.9 µM (inactive)	> 100 µM (inactive)	> 100 µM (inactive)	> 100 µM (inactive)	46.5 µM (inactive)	17.8 µM (inactive)
CCCCCCCCOCC(O)CO (stereo unspecified)	> 100 µM (inactive)	> 100 µM (inactive)	4.52 µM (inactive)	> 100	> 100 µM (inactive)	29.5 µM (inactive)	> 100 µM (inactive)	> 100 µM (inactive)	84.9 µM (inactive)	> 100 µM (inactive)	> 100 µM (inactive)	> 100 µM (inactive)	> 100 µM (inactive)	43.3 µM (inactive)	> 100 µM (inactive)	> 100 µM (inactive)			
O=c1c(Cl)c(Cl)cnn1CCc1ccncc1	21.6 µM (inactive)	37.9 µM (inactive)	19.1 µM (inactive)	16.4	17.3 µM (inactive)	12.5 µM (inactive)	17.8 µM (inactive)	22 µM (inactive)	29.4 µM (inactive)	17.3 µM (inactive)	24.6 µM (inactive)	20.6 µM (inactive)	21.5 µM (inactive)	16.6 µM (inactive)	17.7 µM (inactive)	20.8 µM (inactive)			
CC(C)(CN1CCCCC1)C(=O)/C=C/c1ccc(Cl)cc1	2.73 µM (inactive)	3.42 µM (inactive)	2.09 µM (inactive)	2.65	> 10 µM (inactive)	2.95 µM (inactive)	2.84 µM (inactive)	5.06 µM (inactive)	4.41 µM (inactive)	2.69 µM (inactive)	3.86 µM (inactive)	3.34 µM (inactive)	2.23 µM (inactive)	2.44 µM (inactive)	6.4 µM (inactive)	5.35 µM (inactive)			
CCCCCCCCCCCCCCCCCC(=O)OCC(C[As](=O)(O)O)OC(=O)CCCCCCCCCCCCCCCCC (stereo unspecified)	> 100 µM (inactive)	> 100 µM (inactive)	39 µM (inactive)	38.4	52.5 µM (inactive)	> 100 µM (inactive)		30.1 µM (inactive)	24.4 µM (inactive)	34 µM (inactive)	19.2 µM (inactive)	43.2 µM (inactive)	32.6 µM (inactive)	29.4 µM (inactive)	> 100 µM (inactive)	> 100 µM (inactive)			
Cc1ccc(O)c(C2=NNC(c3cccc(Br)c3)C2)c1 (stereo unspecified)		44.5 µM (inactive)	29.3 µM (inactive)	11.5	13 µM (inactive)	63.4 µM (inactive)	38.3 µM (inactive)	> 100 µM (inactive)	71.6 µM (inactive)	76.6 µM (inactive)	56.4 µM (inactive)	71 µM (inactive)	74.1 µM (inactive)		48.9 µM (inactive)	35.7 µM (inactive)	81.3 µM (inactive)	48.1 µM (inactive)	35.6 µM (inactive)
CC(C)C1(O)C(c2ccccc2)=C(c2ccccc2)C(c2ccccc2)=C1c1ccccc1	15.2 µM (inactive)	6.76 µM (inactive)	5.09 µM (inactive)	5.22	6.15 µM (inactive)	4.9 µM (inactive)	6.59 µM (inactive)	10.4 µM (inactive)	7.26 µM (inactive)	9.59 µM (inactive)	2.82 µM (inactive)	4.49 µM (inactive)	12.5 µM (inactive)	12.3 µM (inactive)	5.36 µM (inactive)	7.59 µM (inactive)			
O=C(NCC(C(=O)OCc1ccccc1)C(=O)OCc1ccccc1)OCc1ccccc1		63.8 µM (inactive)		> 100	> 100 µM (inactive)	> 100 µM (inactive)		> 100 µM (inactive)	50.4 µM (inactive)	59.3 µM (inactive)	77.4 µM (inactive)	> 100 µM (inactive)	> 100 µM (inactive)	> 100 µM (inactive)	> 100 µM (inactive)	> 100 µM (inactive)	> 100 µM (inactive)	42.6 µM (inactive)	
O=C(c1ccc(Br)cc1)n1c2ccc(Br)cc2c2nc3ccccc3nc21			> 100 µM (inactive)	> 100	> 100 µM (inactive)	> 100 µM (inactive)	> 100 µM (inactive)	> 100 µM (inactive)	> 100 µM (inactive)	> 100 µM (inactive)	> 100 µM (inactive)	> 100 µM (inactive)	> 100 µM (inactive)	76.7 µM (inactive)	> 100 µM (inactive)	> 100 µM (inactive)	> 100 µM (inactive)	> 100 µM (inactive)	> 100 µM (inactive)
CCOC(=O)CC[C@@H](NC(=O)c1ccc(N[C@@H]2c3cc4c(cc3C(c3cc(OC)c(O)c(OC)c3)C3C(=O)OC[C@@H]32)OCO4)cc1)C(=O)OCC (stereo partly specified)	0.0129 µM (active)	0.0222 µM (active)	0.00525 µM (active)	0.0637	0.0706 µM (active)	0.0322 µM (active)	0.0205 µM (active)	0.0995 µM (active)		0.0103 µM (active)		0.0208 µM (active)	0.0157 µM (active)	0.0787 µM (active)	0.13 µM (active)	0.0167 µM (active)			
CN(C)CCC1(C2=CCCC2)CC/C(=C\c2ccc(Cl)cc2)C1=O (stereo unspecified)	6.25 µM (inactive)	12.4 µM (inactive)	2.38 µM (inactive)	5.07	7.14 µM (inactive)	9.91 µM (inactive)	10.1 µM (inactive)	6.56 µM (inactive)	14.2 µM (inactive)	14.5 µM (inactive)	2.31 µM (inactive)	11.8 µM (inactive)	12.7 µM (inactive)	6.85 µM (inactive)	2.92 µM (inactive)	3.08 µM (inactive)			
C[n+]1ccc(-c2cc[n+](C)cc2)cc1 [PARAQUAT DICHLORIDE]	> 32.6 µM (inactive)	12.1 µM (inactive)	> 48.4 µM (inactive)	> 32.4	18 µM (inactive)	5.83 µM (inactive)	> 22.9 µM (inactive)	0.265 µM (active)	8.43 µM (inactive)	12.2 µM (inactive)	0.644 µM (active)	> 22.5 µM (inactive)	20.7 µM (inactive)	33.5 µM (inactive)	1.5 µM (inactive)	7.19 µM (inactive)			
